Measured values: ChEMBL document CHEMBL4393711, “Discovery and synthesis of novel indole derivatives-containing 3-methylenedihydrofuran-2(3H)-one as irreversible LSD1 inhibitors” (Eur J Med Chem, 2019)

The compounds below were run against T1, Lysine-specific histone demethylase 1A (Homo sapiens, UniProt O60341) (assay: Inhibition of recombinant LSD1 (unknown origin) (catalytic domain 157 to 852 residues) expressed in Escherichia coli BL21 using H3K4me1 as substrate incubated for 1 hr by horse-radish peroxidase/amplex red-based fluorescence method). Conditions: not given.

Row | Structure (SMILES) | IC50 [µM]
1 | C=C1C(=O)OCC1C(O)c1cn(C(=O)c2c(C)noc2C)c2ccc(Cl)cc12 (stereo unspecified) | > 10
2 | C=C1C(=O)OCC1C(O)c1cn(Cc2ccncc2)c2ccc(Cl)cc12 (stereo unspecified) | > 10
3 | O/N=C(\c1ccccc1)c1cn(Cc2ccc(F)cc2)c2ccc(Cl)cc12 | > 10
4 | C=C1C(=O)OCC1C(O)c1cn(Cc2ccc(Cl)cc2)c2cccc(Cl)c12 (stereo unspecified) | > 10
5 | C=C1C(=O)OCC1C(O)c1cn(Cc2nc3ccccc3o2)c2ccc(Cl)cc12 (stereo unspecified) | > 10
6 | C=C1C(=O)OCC1C(O)c1cn(C(=O)c2cccnc2Cl)c2ccc(Cl)cc12 (stereo unspecified) | > 10
7 | C=C1C(=O)OCC1C(O)c1cn(Cc2csc(N)n2)c2ccc(Cl)cc12 (stereo unspecified) | > 10
8 | O=C(c1ccco1)c1cn(Cc2ccc(F)cc2)c2ccc(Cl)cc12 | > 10
9 | C=C1C(=O)OCC1C(O)c1cn(Cc2cncc(C)c2)c2ccc(Cl)cc12 (stereo unspecified) | > 10
10 | C=C1C(=O)OCC1C(O)c1cn(Cc2ncccn2)c2ccc(Cl)cc12 (stereo unspecified) | > 10
11 | CC1=CCSC1C(=O)c1cn(Cc2ccc(F)cc2)c2ccc(Cl)cc12 (stereo unspecified) | > 10
12 | C=C1C(=O)OCC1C(O)c1cn(Cc2ccc(Cl)cc2)c2cc(OC)ccc12 (stereo unspecified) | > 10
13 | C=C1C(=O)OCC1C(O)c1cn(CC2CC2)c2ccc(Cl)cc12 (stereo unspecified) | > 10
14 | C=C1C(=O)OCC1C(O)c1cn(Cc2nc(C)c3ccccc3n2)c2ccc(Cl)cc12 (stereo unspecified) | > 10
15 | C=C1C(=O)OCC1C(O)c1cn(C(=O)/C=C/c2ccccc2)c2ccc(Cl)cc12 (stereo unspecified) | > 10
16 | C=C1C(=O)OCC1C(O)c1cn(Cc2nc3ccccc3[nH]2)c2ccc(Cl)cc12 (stereo unspecified) | > 10
17 | O=C(c1ccnc(Cl)c1)c1cn(Cc2ccc(F)cc2)c2ccc(Cl)cc12 | > 10
18 | O=C(c1ccccc1)c1cn(Cc2ccc(F)cc2)c2ccc(Cl)cc12 | > 10
19 | O=C(c1ccc(F)cc1)c1cn(Cc2ccc(F)cc2)c2ccc(Cl)cc12 | > 10
20 | CC(=O)c1cn(Cc2ccc(F)cc2)c2ccc(Cl)cc12 | > 10
21 | C=C1C(=O)OCC1C(O)c1cn(Cc2ccc(Cl)cc2)c2ccc(F)cc12 (stereo unspecified) | > 10

Row | Structure (SMILES) | IC50 [µM]
22 | OC(c1ccccc1)c1cn(Cc2ccc(F)cc2)c2ccc(Cl)cc12 (stereo unspecified) | > 10
23 | C=C1C(=O)OCC1C(O)c1cn(C(=O)c2sccc2C)c2ccc(Cl)cc12 (stereo unspecified) | > 10
24 | Cc1ccc(C(=O)c2cn(Cc3ccc(F)cc3)c3ccc(Cl)cc23)cc1 | > 10
25 | C=C1C(=O)OCC1C(O)c1cn(Cc2ccc(Cl)cc2)c2cc(Cl)ccc12 (stereo unspecified) | > 10
26 | C=C1C(=O)OCC1C(O)c1cn(Cc2ccc(Cl)cc2)c2c(Cl)cccc12 (stereo unspecified) | > 10
27 | C=C1C(=O)OCC1C(O)c1cn(Cc2ccc(Cl)cc2)c2ccc(Cl)cc12 (stereo unspecified) | > 10
28 | O=C(/C=C/c1cccs1)c1cn(Cc2ccc(F)cc2)c2ccc(Cl)cc12 | > 10
29 | O=C(/C=C/c1ccco1)c1cn(Cc2ccc(F)cc2)c2ccc(Cl)cc12 | > 10
30 | C=C1C(=O)OCC1C(O)c1cn(Cc2ccc(Cl)s2)c2ccc(Cl)cc12 (stereo unspecified) | > 10
31 | C=C1C(=O)OCC1C(O)c1cn(Cc2ccc(Cl)cc2)c2ccc(OC)cc12 (stereo unspecified) | > 10
32 | C=C1C(=O)OCC1C(O)c1cn(Cc2ccc(Cl)cn2)c2ccc(Cl)cc12 (stereo unspecified) | > 10
33 | C=C1C(=O)OCC1C(O)c1cn(C(=O)C2CC2)c2ccc(Cl)cc12 (stereo unspecified) | > 10
34 | C=C1C(=O)OCC1C(O)c1cn(Cc2cnc(Cl)s2)c2ccc(Cl)cc12 (stereo unspecified) | > 10
35 | O=C(c1cn(Cc2ccc(F)cc2)c2ccc(Cl)cc12)C1CC1 | > 10
36 | C=C1C(=O)OCC1C(O)c1cn(Cc2nc3ccccc3s2)c2ccc(Cl)cc12 (stereo unspecified) | > 10
37 | O=C(c1ccncc1)c1cn(Cc2ccc(F)cc2)c2ccc(Cl)cc12 | > 10
38 | C=C1C(=O)OCC1C(O)c1cn(Cc2ccc(Cl)cc2)c2cccc(OC)c12 (stereo unspecified) | > 10
39 | C=C1C(=O)OCC1C(O)c1cn(Cc2c(C)noc2C)c2ccc(Cl)cc12 (stereo unspecified) | > 10
40 | C=C1C(=O)OCC1C(O)c1cn(C(=O)c2ccco2)c2ccc(Cl)cc12 (stereo unspecified) | > 10
41 | C=C1C(=O)OCC1C(O)c1cn(Cc2ccc(Cl)cc2)c2c(OC)cccc12 (stereo unspecified) | > 10

Each compound was assayed on THP-1 (assay: Antiproliferative activity against human THP1 cells assessed as reduction in cell viability incubated for 5 days by MTT assay). Conditions: THP-1, 120 h.

Row | Structure (SMILES) | IC50 [µM]
42 | C=C1C(=O)OCC1C(O)c1cn(Cc2ccc(F)cc2)c2ccc(Cl)cc12 (stereo unspecified) | 1.2

The compounds below were run on THP-1 (assay: Inhibition of colony formation in human THP1 cells incubated for 2 weeks by microscopic analysis). Conditions: not given.
Assay type: functional, cell-based

Row | Structure (SMILES) | inhibition
43 | C=C1C(=O)OCC1C(O)c1cn(Cc2ccc(F)cc2)c2ccc(Cl)cc12 (stereo unspecified) | Dose-dependent effect
44 | c1ccc([C@@H]2C[C@H]2NC2CCNCC2)cc1 | Dose-dependent effect

The compounds below were run on THP-1 (assay: Induction of cellular morphology change in human THP1 cells assessed as blurred cell membrane boundaries with chromatin shrinkage incubated for 3 days by hematoxylin and eosin staining based microscopic analysis). Conditions: not given.
Assay type: functional

Row | Structure (SMILES) | Activity
45 | C=C1C(=O)OCC1C(O)c1cn(Cc2ccc(F)cc2)c2ccc(Cl)cc12 (stereo unspecified) | Dose-dependent effect
46 | c1ccc([C@@H]2C[C@H]2NC2CCNCC2)cc1 | Dose-dependent effect

What follows are compounds tested against T1, Lysine-specific histone demethylase 1A. Conditions: not given.

Row | Structure (SMILES) | Ka [×10³ /M.s]
47 | c1ccc([C@@H]2C[C@H]2NC2CCNCC2)cc1 | 2.6

Target: T1, Lysine-specific histone demethylase 1A
Conditions: not given
Remark: another data set of the same source

Row | Structure (SMILES) | Kdiss [×10⁻¹ /s]
48 | c1ccc([C@@H]2C[C@H]2NC2CCNCC2)cc1 | 1.11

Target: T1, Lysine-specific histone demethylase 1A
Conditions: not given
Remark: another data set of the same source

Row | Structure (SMILES) | ΔTm [°C]
49 | c1ccc([C@@H]2C[C@H]2NC2CCNCC2)cc1 | 2.21

Target: T1, Lysine-specific histone demethylase 1A
Conditions: not given
Remark: another data set of the same source

Row | Structure (SMILES) | ΔTm [°C]
50 | c1ccc([C@@H]2C[C@H]2NC2CCNCC2)cc1 | 4.28

Target: T1, Lysine-specific histone demethylase 1A
Conditions: not given
Remark: another data set of the same source

Row | Structure (SMILES) | ΔTm [°C]
51 | c1ccc([C@@H]2C[C@H]2NC2CCNCC2)cc1 | 8.37
